Measured values as given in US6013642A, “Use of estrone derivatives as steroid sulphatase inhibitors” (priority 1994, dated 2000).

Tests used:
U937 DHEAS sulphatase = target: T1, U937 DHEAS sulphatase (Homo sapiens, UniProt P08842); experiment: DHEAS sulphatase activity in U937 cell extracts; assay type: biochemical
T1 construct: DHEAS sulphatase activity in U937 cell extracts; endogenous in cells; host or cells: U937 cells (sonicate in Tris buffered saline with 1% Triton X-100)
T1 sequence (P08842 22-583): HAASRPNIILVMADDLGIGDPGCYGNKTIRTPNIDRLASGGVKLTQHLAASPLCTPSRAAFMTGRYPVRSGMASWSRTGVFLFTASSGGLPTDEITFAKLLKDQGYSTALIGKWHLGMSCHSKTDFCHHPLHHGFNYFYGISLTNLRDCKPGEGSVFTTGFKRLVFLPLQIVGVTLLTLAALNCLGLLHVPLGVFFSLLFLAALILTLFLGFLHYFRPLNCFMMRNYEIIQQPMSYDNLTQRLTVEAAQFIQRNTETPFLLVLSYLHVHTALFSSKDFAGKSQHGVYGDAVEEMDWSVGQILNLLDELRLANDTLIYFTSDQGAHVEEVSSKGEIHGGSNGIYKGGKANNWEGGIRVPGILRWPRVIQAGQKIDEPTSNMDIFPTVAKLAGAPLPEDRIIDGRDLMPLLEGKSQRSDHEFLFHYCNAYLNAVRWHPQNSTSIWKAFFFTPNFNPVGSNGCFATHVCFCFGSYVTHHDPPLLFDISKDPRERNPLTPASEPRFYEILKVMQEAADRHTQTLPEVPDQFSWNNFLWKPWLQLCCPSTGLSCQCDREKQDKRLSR
Procedure: c) DHEAS sulphatase activity in U937 cell extracts.
The inhibitors Ct 2211 and Ct 2251 were dissolved in 100% ethanol and 100% dimethyl sulphoxide (DMSO) respectively at stock concentrations of 20 mM. These were titrated in their respective solvents over a range of assay concentrations. The tritiated substrates DHEA sulphate and estrone sulphate were obtained from New England Nuclear and diluted in ethanol to give a final concentration of 70 nM for use in the assay. U937 cells were grown in RPLI containing 10% foetal bovine serum and harvested at a cell concentration of 1×10^6 /ml. These were washed in serum free medium stored at -70° C. at 1×10^8 /ml in Tris buffered saline pH7.4+1% triton X-100 and sonicated prior to use in the assay.
50 μl of substrate in ethanol was added to each assay tube and the solvent removed in a rotary vacuum evaporator. […] After centrifugation scintillation fluid was added to extract the desulphated substrate and the CPM present in an aliquot of the organic phase were counted using a beta counter.
In order to obtain total counts 10 μl of the aqueous fraction of the duplicate tubes containing only hot DHEA-s were counted after addition of scintillant and the total cpm calculated as follows: [formula] where vo +inhibitor-rate in the presence of inhibitor and vo -inhibitor=rate in the absence of inhibitor.
IC50 determined as described previously.

[1] = target: T2, human placental microsomal DHEAS sulphatase (Homo sapiens, UniProt P08842); experiment: Human placental microsomal steroid sulphatase assay; assay type: biochemical
T2 construct: Human placental microsomes prepared as described in; from tissue; host or cells: human placenta, microsomes (prepared as Santner et al 1984)
T2 sequence (P08842 22-583): T1 sequence (P08842 22-583)
Procedure: a) Human placental microsomal steroid sulphatase
ENZYME: Human placental microsomes prepared as described in (Santner, S. J., et al (1984) J. Clin. Endocrinol. Metab. 59 29).
ASSAY: All assays were carried out in (at least) duplicate. The reaction mixture consisted of either PBS+250 mM sucrose (placental microsomes), containing 1 μmol/1 DHEAS [concentration chosen because approx. […]] with 0.05% (v/v) [^3 H] substrate and 0.05% (v/v) [^14 C] DHEA) in 0.5% (v/v DMSO. The reaction was initiated by addition of appropriately diluted) such that 10% substrate conversion occurred during the assay) enzyme and incubated for 30 min at 30° C. Reactions were stopped by addition of 1000 μl toluene to the reaction mixture, vortexed (2*40 sec on max setting of multitube vortexer), then allow to settle for 5 min. 500 μl top (solvent) layer removed to scintillation vial. add 10 ml scintillation fluid (Ultima Gold XR) then counted for radioactivity on a scintillation counter. As controls, enzyme was excluded from some reaction mixtures and 50% solvent and aqueous layers removed and counted for radioactivity in order to determine background (in solvent layer) and total (in aqueous layer) [^3 H]. [^14 C] DHEA is included to enable back correction to allow for product (DHEA) recovery (normally >98%). […]

[2] = system: mouse delayed type hypersensitivity model; experiment: Delayed type hypersensitivity (SRBC, footpad swelling) in the mouse; assay type: in vivo; details: FIG. 11, 24 h post challenge
Procedure: 2. Delayed Type Hypersensitivity (DTH)
On day 0, animals were injected intravenously with 10^6 washed SRBC in 0.1 ml saline. Four days later animals were challenged in the right hind footpad with 10^6 washed SRBC in 50 μl saline. Footpad thickness is measured prior to challenge, 24, 48 and 72 hours post challenge using calipers. Footpad swelling is determined as the difference in thickness prior and post challenge. The data are expressed as percentage change from the vehicle treated groups given sensitisation and challenge.
Animals were randomised into 10 groups (n=7-8) and steroids given on day 0 and 4.
Steroids were given on day 0 and 3 subcutaneously. Response at 24 h post challenge. Results given as mean±sem. $, *p<0.05 ANOVA.

[3] = system: rat delayed type hypersensitivity model; experiment: Delayed type hypersensitivity in the rat; assay type: in vivo, Lewis rats; details: FIG. 12; CT2251 0.1, 1, 10 mg/kg s.c. days 0, 3 and 4; 24 and 48 h
Procedure: Lewis rats were sensitised with SRBC IV and challenged 4 days later with 10^8 SRBC into the footpad. The resulting swelling response was measured 24 and 48 h later. Rats were randomised into 5 groups (n=6-7) and steroids given on days 0, 3 and 4, subcutaneously. Results given as mean±sem.

## C[C@]12CC[C@@H]3c4ccc(OS(N)(=O)=O)cc4CC[C@H]3[C@@H]1CCC2=O [CT 2251, Estrone 3-0-sulphamate]
U937 DHEAS sulphatase
  IC50: 0.04 µM
U937 DHEAS sulphatase; FIG. 3, estrone sulphate substrate
  inhibition of U937 sulphatase with estrone sulphate as substrate: inhibit
[1]
  IC50: 0.005 µM
[2]; CT2251 0.1 and 10 mg/kg s.c.
  foot swelling response, inhibitor on its own: can markedly reduce the foot swelling response
[2]; CT2251 0.1 and 10 mg/kg with DHEAS 5 mg/kg s.c.
  effect on DHEAS-mediated augmentation of foot swelling: can effectively reverse the DHEAS-mediated augmentation
[3]
  DTH footpad swelling response: can also suppress a DTH response in rats
